According to patent US5212189A, “Thiadiazole or oxadiazole analogs of fenamic acids containing substituted hydroxamate side chains as antiinflammatory agents” (Warner-Lambert Company, priority 1991, dated 1993):
Like-named read-outs stand apart in the source and are kept apart here.

Experiments:
cyclooxygenase = target: T1, cyclooxygenase (Rattus norvegicus, UniProt Q63921); assay: ARBC whole cell cyclooxygenase assay: inhibition of PGF2α formation in A23187-stimulated RBL-1 cells; format: cell-based; conditions: RBL-1 whole cells; for IC50: RIA of PGF2α
T1 construct: host or cells: RBL-1 (rat basophilic leukemia)
T1 sequence (Q63921 27-602): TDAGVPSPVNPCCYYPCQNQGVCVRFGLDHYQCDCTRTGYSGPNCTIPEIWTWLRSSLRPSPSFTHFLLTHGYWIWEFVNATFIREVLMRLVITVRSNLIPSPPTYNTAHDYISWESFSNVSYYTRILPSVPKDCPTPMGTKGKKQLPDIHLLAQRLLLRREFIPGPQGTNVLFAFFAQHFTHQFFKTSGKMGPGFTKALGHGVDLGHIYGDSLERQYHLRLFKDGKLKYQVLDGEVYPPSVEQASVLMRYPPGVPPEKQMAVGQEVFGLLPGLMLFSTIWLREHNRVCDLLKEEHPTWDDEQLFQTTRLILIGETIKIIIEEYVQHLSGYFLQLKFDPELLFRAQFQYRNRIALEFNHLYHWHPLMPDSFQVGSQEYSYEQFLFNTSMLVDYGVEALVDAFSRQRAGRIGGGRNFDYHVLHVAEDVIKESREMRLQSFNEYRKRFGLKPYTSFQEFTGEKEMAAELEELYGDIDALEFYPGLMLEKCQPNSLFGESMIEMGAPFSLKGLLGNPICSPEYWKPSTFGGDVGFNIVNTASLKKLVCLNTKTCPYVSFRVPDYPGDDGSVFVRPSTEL
Description: (§1) ARBL/ARBC WHOLE CELL 5-LIPOXYGENASE AND CYCLOOXYGENASE ASSAYS
(§2) The rat basophilic leukemia cell line (RBL-1) was obtained from the American Type Culture Collection (Rockville, MD).
(§3) Radioimmunoassay (RIA) kits of LTB4 and PGF2α were obtained from Amersham (Arlington Heights, Ill.) and Seragen (Boston, Mass.), respectively.
(§4) RBL-1 cells are grown in suspension culture in Eagle's minimum essential medium supplemented with 12% fetal bovine serum at 37° C. in an incubator supplied with air 5% carbon dioxide. Cells are harvested by centrifugation. They are washed with cold phosphate-buffered saline, pH 7.4 (PBS; NaCl, 7.1 g; Na2 HPO4, 1.15 g; KH2 PO4, 0.2 g; and KCl, 0.2 g/L). Cells are finally suspended in PBS containing 1.0 mM calcium at a density of 2 × 10^6 cells/mL Cells are incubated and without test agent (in DMSO) (1% DMSO is without effect on arachidonic acid metabolism) for 10 minutes at room temperature. Calcium ionophore A23187 (5 μM) is added and cells are incubated for 7 minutes at 37° C. The reaction is stopped by chilling the tubes on ice for 10 minutes. Cells are separated by centrifugation and the supernatant is stored at -20° C. Aliquots (100 μL) are analyzed for LTB4 and PGF2α using radioimmunoassay kits as provided by the supplier.
(§5) Table 1 contains biochemical data for compounds of Formula I obtained from this whole cell assay as amount of inhibition at 10 μM or IC50 s which are calculated as the concentration of a test compound in micromoles (μM) causing 50% inhibition of LTB4 or PGF2α formation.

5-lipoxygenase = target: T2, 5-lipoxygenase (Rattus norvegicus, UniProt P12527); assay: ARBL whole cell 5-lipoxygenase assay: inhibition of LTB4 formation in A23187-stimulated RBL-1 cells; format: cell-based; conditions: RBL-1 whole cells; for IC50: RIA of LTB4
T2 construct: host or cells: RBL-1 (rat basophilic leukemia)
T2 sequence (P12527 1-673): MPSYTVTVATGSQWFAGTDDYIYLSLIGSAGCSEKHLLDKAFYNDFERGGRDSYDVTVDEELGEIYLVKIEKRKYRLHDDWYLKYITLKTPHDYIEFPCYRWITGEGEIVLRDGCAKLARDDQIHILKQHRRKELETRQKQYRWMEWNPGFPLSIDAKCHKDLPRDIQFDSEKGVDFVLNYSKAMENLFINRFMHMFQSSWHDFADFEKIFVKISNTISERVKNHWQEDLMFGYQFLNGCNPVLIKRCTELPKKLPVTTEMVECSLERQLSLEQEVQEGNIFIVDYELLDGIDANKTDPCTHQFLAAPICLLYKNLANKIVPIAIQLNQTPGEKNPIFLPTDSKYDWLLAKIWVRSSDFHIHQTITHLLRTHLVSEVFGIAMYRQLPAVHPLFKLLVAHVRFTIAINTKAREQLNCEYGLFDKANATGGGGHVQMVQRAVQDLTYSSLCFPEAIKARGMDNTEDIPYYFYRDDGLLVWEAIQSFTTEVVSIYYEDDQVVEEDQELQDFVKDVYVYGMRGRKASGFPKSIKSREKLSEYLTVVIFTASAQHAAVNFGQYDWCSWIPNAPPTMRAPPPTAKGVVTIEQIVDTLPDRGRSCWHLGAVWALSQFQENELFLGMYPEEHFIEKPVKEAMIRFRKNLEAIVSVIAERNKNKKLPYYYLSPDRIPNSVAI
Description: as §1, §2, §3, §4, §5

[1] = read-out: ARBC, inhibition of PGF2α at 10 μM (class symbol)
[2] = read-out: ARBL, amount of inhibition of LTB4 at 10 μM
[3] = read-out: ARBL, inhibition of LTB4 at 10 μM (class symbol)

Work on `CC(=O)N(O)C(C)c1cccc(Nc2ccccc2-c2n[nH]c(=S)o2)c1Cl` (stereo not shown) [Example 7, N-[1-[3-[[2-(4,5-Dihydro-5-thioxo-1,3,4 oxadiazol-2-yl)phenyl]amino]-2-chlorophenyl]ethyl]-N-hydroxy Acetamide] yielded an IC50 (cyclooxygenase) of 1070 nM and an IC50 (5-lipoxygenase) of 9590 nM.

With `CC(=O)N(O)C(C)c1cccc(Nc2ccccc2-c2n[nH]c(=S)o2)c1C` (stereo not shown) [Example 8, N-[1-[3-[[2-(4,5-dihydro-5 thioxo 1,3,4-oxadiazol-2 yl)phenyl]amino]-2 methylphenyl]ethyl]-N-hydroxyacetamide] the inhibition at 10 µM (cyclooxygenase; [1]) was < 40% and the inhibition at 10 µM (5-lipoxygenase; [2]) was 66%.

With `CC(=O)N(O)C(C)c1c(C)ccc(Nc2ccccc2-c2n[nH]c(=S)o2)c1C` (stereo not shown) [Example 9, N-[1-[3-[[2-(4,5-dihydro-5-thioxo 1,3,4-oxadiazol-2 yl)phenyl]amino]-2,6 dimethylphenyl]ethyl]-N-hydroxyacetamide] the IC50 (cyclooxygenase) was > 10000 nM and the IC50 (5-lipoxygenase) was 5930 nM.

`CC(=O)N(O)C(C)c1cccc(Nc2ccccc2-c2n[nH]c(=S)o2)c1` (stereo not shown) [Example 10, N-[1-[3-[[2-(4,5-dihydro-5-thioxo-1,3,4-oxadiazol-2-yl)phenyl]amino]phenyl]ethyl]-N-hydroxyacetamide] was tested, and the inhibition at 10 µM (cyclooxygenase; [1]) was < 40% and the inhibition at 10 µM (5-lipoxygenase; [3]) was < 40%.

Work on `CCOC(=O)N(O)C(C)c1cccc(Nc2ccccc2-c2n[nH]c(=S)o2)c1Cl` (stereo not shown) [Example 11, Ethyl ester of [1-[2-chloro-3-[[2-(4,5-dihydro-5-thioxo-1,3,4 oxadiazol-2-yl)phenyl]amino]phenyl]-ethyl]hydroxycarbamic acid] yielded an IC50 (cyclooxygenase) of 910 nM and an IC50 (5-lipoxygenase) of 1140 nM.

For `CNC(=O)N(O)C(C)c1cccc(Nc2ccccc2-c2n[nH]c(=S)o2)c1Cl` (stereo not shown) [Example 12, N-[1-[2-chloro-3-[[(4,5-dihydro-5-thioxo-1,3,4-oxadiazol-2-yl)phenyl]amino]phenyl]ethyl]-N-hydroxy-N'-methylurea], the inhibition at 10 µM (cyclooxygenase; read-out: ARBC, amount of inhibition of PGF2α at 10 μM) was 100% and the inhibition at 10 µM (5-lipoxygenase; [3]) was < 40%.

In the case of `CC(=O)N(O)C(C)c1cccc(Nc2ccccc2-c2n[nH]c(=O)o2)c1Cl` (stereo not shown) [Example 13], the IC50 (cyclooxygenase) is reported as 1880 nM and the IC50 (5-lipoxygenase) is reported as 680 nM.

For `CC(=O)N(O)C(C)c1cccc(Nc2ccccc2-c2n[nH]c(=O)o2)c1` (stereo not shown) [Example 14, N-[1-[3-[[2-(4,5-dihydro-5-oxo-1,3,4-oxadiazol-2-yl)phenyl]amino]phenyl]ethyl]-N-hydroxyacetamide], the inhibition at 10 µM (cyclooxygenase; [1]) was < 40% and the inhibition at 10 µM (5-lipoxygenase; [2]) was 100%.

`CCOC(=O)N(O)C(C)c1cccc(Nc2ccccc2-c2n[nH]c(=O)o2)c1Cl` (stereo not shown) [Example 15, Ethyl ester of [1-[2-chloro-3-[[2-(4,5-dihydro-5-oxo-1,3,4-voxadiazol-2-yl)phenyl]amino]phenyl]-ethyl]hydroxycarbamic acid] gave an IC50 (cyclooxygenase) of 860 nM and an IC50 (5-lipoxygenase) of 1090 nM.

With `CNC(=O)N(O)C(C)c1cccc(Nc2ccccc2-c2n[nH]c(=O)o2)c1Cl` (stereo not shown) [Example 16] the IC50 (cyclooxygenase) was 360 nM and the IC50 (5-lipoxygenase) was 1870 nM.

`CC(=O)N(O)C(C)c1cccc(Nc2ccccc2-c2nnc(N)o2)c1Cl` (stereo not shown) [Example 17, N-[1-[3-[[2-(5-Amino-1,3,4-oxadiazol-2-yl)phenyl]amino]-2-chlorophenyl]ethyl]-N-hydroxyacetamide] was tested, and the inhibition at 10 µM (cyclooxygenase; [1]) was < 40% and the inhibition at 10 µM (5-lipoxygenase; [2]) was 100%.
